Where a name gives a salt, the structure may show the parent alone.
Molecular target: T1, Nav1.7 (or SCN9A) channel (Homo sapiens, UniProt Q15858)
T1 construct: expressed in transfected cells
Assay: Nav1.7 (hSCN9A) block, whole-cell electrophysiology on the PatchXpress platform
Assay type: cell-based
Conditions: estimated IC50 from single point electrophysiology data, HEK cells stably expressing hSCN9A, prepulse to V1/2, read-out: Nav1.7 EIC50
Description: The ability of the compounds of formula (I) to block the Nav1.7 (or SCN9A) channel were measured using the assay described below.
Human Embryonic Kidney (HEK) cells were transfected with an hSCN9A construct using lipofectamine reagent (Invitrogen), using standard techniques. Cells stably expressing the hSCN9A constructs were identified by their resistance to G-418 (400 μg/ml). Clones were screened for expression using the whole-cell voltage-clamp technique.
HEK cells stably transfected with hSCN9A were maintained in DMEM medium supplemented with 10% heat-inactivated fetal bovine serum and 400 μg/ml G-418 in an incubator at 37° C. with a humidified atmosphere of 10% CO2. For HTS, cells were harvested from flasks by trypsinization and replated in an appropriate multi-well plate (typically 96 or 384 wells/plate) such that confluence would be achieved within 24 hours of plating. For electrophysiological studies, cells were removed from the culture flask by brief trypsinization and re-plated at low density onto glass cover slips. Cells were typically used for electrophysiological experiments within 24 to 72 hours after plating.
Cover slips containing HEK cells expressing hSCN9A were placed in a bath on the stage of an inverted microscope and perfused (approximately 1 ml/minutes) with extracellular solution of the following composition: 138 mM NaCl, 2 mM CaCl2, 5.4 mM KCl, 1 mM MgCl2, 10 mM glucose, and 10 mM HEPES, pH 7.4, with NaOH. […] The osmolarity of the extracellular and intracellular solutions was 300 mOsm/kg and 295 mOsm/kg, respectively. All recordings were made at room temperature (22-24° C.) using AXOPATCH 200B amplifiers and PCLAMP software (Axon Instruments, Burlingame, Calif.).
hSCN9A currents in HEK cells were measured using the whole-cell configuration of the patch-clamp technique (Hamill et al., 1981). Uncompensated series resistance was typically 2 to 5 mega ohms and >85% series resistance compensation was routinely achieved. As a result, voltage errors were negligible and no correction was applied. Current records were acquired at 20 to 50 KHz and filtered at 5 to 10 KHz.
HEK cells stably transfected with hSCN9A were viewed under Hoffman contrast optics and placed in front of an array of flow pipes emitting either control or compound-containing extracellular solutions. All compounds were dissolved in dimethyl sulfoxide to make 10 mM stock solutions, which were then diluted into extracellular solution to attain the final concentrations desired. […] The voltage-dependence of inactivation was determined by applying a series of depolarizing prepulses (8 sec long in 10 mV increments) from a negative holding potential. The voltage was then immediately stepped to 0 mV to assess the magnitude of the sodium current. Currents elicited at 0 mV were plotted as a function of prepulse potential to allow estimation of the voltage at which 50% of the channels were inactivated (midpoint of inactivation or V1/2). Compounds were tested for their ability to inhibit hSCN9A sodium channels by activating the channel with a 20 msec voltage step to 0 mV following an 8 second conditioning prepulse to the empirically determined V1/2. Compound effect (% inhibition) was determined by difference in current amplitude before and after application of test compounds. For ease of comparison, “estimated IC-50” (EIC50) values were calculated from single point electrophysiology data by the following equation, (tested concentration, uM)×(100−% inhibition/% inhibition). Inhibition values <20% and >80% were excluded from the calculation.
Electrophysiological assays were conducted with PatchXpress 7000 hardware and associated software (Molecular Devices Corp). All assay buffers and solutions were identical to those used in conventional whole-cell voltage clamp experiments described above. hSCN9A cells were grown as above to 50%-80% confluency and harvested by trypsinization. […]

T1 sequence (Q15858 whole entry): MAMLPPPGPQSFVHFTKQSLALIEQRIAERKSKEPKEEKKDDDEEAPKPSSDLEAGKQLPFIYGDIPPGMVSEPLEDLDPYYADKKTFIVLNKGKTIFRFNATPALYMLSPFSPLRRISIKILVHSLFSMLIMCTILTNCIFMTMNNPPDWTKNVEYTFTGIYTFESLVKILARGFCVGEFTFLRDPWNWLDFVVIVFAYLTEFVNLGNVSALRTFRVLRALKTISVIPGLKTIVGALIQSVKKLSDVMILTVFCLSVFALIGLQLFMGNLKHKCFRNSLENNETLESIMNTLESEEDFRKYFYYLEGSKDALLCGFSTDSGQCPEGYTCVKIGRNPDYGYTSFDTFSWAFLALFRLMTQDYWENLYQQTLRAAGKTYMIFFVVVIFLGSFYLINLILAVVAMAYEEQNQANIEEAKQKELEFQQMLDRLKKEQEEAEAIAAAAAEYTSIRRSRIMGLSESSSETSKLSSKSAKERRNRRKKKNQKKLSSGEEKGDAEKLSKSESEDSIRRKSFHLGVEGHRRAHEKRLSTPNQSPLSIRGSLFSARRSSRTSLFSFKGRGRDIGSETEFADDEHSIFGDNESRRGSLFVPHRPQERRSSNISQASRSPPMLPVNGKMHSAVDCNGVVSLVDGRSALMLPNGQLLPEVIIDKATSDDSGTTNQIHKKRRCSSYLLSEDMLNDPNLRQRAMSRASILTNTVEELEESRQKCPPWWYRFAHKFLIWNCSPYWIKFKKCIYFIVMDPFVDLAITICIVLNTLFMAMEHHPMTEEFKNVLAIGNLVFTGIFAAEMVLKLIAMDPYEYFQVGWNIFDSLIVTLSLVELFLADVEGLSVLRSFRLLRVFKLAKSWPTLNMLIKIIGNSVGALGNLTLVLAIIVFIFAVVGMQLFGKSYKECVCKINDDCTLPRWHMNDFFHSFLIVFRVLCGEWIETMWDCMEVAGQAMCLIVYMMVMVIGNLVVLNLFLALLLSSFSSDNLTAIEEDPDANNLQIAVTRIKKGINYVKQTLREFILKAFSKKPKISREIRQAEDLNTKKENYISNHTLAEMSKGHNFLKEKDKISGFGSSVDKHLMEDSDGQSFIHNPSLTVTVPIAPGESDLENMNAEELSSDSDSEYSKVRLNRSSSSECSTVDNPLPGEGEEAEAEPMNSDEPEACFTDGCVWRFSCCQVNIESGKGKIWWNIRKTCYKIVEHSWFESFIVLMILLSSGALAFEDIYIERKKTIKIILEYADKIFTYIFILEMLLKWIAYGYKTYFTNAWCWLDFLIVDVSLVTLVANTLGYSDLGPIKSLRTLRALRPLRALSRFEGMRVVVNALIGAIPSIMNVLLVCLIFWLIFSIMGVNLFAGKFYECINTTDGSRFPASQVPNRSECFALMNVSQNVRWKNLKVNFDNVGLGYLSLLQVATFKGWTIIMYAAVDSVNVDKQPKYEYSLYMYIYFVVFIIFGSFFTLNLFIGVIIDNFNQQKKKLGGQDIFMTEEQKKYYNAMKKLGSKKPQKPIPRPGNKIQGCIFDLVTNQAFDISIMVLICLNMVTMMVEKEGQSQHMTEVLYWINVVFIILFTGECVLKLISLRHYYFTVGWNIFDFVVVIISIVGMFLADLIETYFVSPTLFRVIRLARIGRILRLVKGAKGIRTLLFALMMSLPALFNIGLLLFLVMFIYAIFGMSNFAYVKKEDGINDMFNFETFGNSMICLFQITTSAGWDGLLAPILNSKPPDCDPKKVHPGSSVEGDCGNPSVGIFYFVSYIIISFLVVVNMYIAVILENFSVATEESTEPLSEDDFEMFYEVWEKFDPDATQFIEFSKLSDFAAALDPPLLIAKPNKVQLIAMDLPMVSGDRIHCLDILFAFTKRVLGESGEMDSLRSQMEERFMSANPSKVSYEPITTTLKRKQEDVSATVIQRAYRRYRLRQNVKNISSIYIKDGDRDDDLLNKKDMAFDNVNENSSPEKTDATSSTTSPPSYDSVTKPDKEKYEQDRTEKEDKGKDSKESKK

Question: Which IC50 does the source give for CC(C)Oc1ncc(OCc2cc(F)c(C(=O)NS(=O)(=O)N(C)C)cc2F)cc1Cl [Example 1, 4-{[(5-Chloro-6-isopropoxypyridin-3-yl)oxy]methyl}-N-[(dimethylamino)sulfonyl]-2,5-difluorobenzamide] here?
Answer: 240 nM

Question: How did the IC50 turn out when CN(C)S(=O)(=O)NC(=O)c1cc(F)c(COc2ccc(C(F)(F)F)c(Cl)c2)cc1F [Example 2, 4-{[3-Chloro-4-(trifluoromethyl)phenoxy]methyl}-N-[(dimethylamino)sulfonyl]-2,5-difluorobenzamide] was run?
Answer: 110 nM

Question: CN(C)S(=O)(=O)NC(=O)c1cc(F)c(OCc2ccc(Cl)c(Cl)c2)cc1F [Example 3, 4-[(3,4-Dichlorobenzyl)oxy]-N-[(dimethylamino)sulfonyl]-2,5-difluorobenzamide] was tested. Which IC50 did it give?
Answer: 1300 nM

Question: How did the IC50 turn out when CN(C)S(=O)(=O)NC(=O)c1ccc(COc2ccc(Cl)c(C(F)(F)F)c2)cc1 [Example 4, 4-{[4-chloro-3-(trifluoromethyl)phenoxy]methyl}-N-[(dimethylamino)sulfonyl]benzamide] was run?
Answer: 1500 nM

Question: With CN(C)S(=O)(=O)NC(=O)c1ccc(COc2ccc(C(F)(F)F)c(Cl)c2)cc1 [Example 5, 4-{[3-chloro-4-(trifluoromethyl)phenoxy]methyl}-N-[(dimethylamino)sulfonyl]benzamide] as the compound, how does the IC50 read?
Answer: 920 nM

Question: CN(C)S(=O)(=O)NC(=O)c1cc(F)c(COc2ccc(Cl)c(C(F)(F)F)c2)cc1F [Example 6, 4-{[4-chloro-3-(trifluoromethyl)phenoxy]methyl}-N-[(dimethylamino)sulfonyl]-2,5-difluorobenzamide] was tested. Which IC50 did it give?
Answer: 200 nM

Question: CC(C)Oc1ncc(COc2cc(F)c(C(=O)NS(=O)(=O)N(C)C)cc2F)cc1Cl [Example 7, 4-[(5-chloro-6-isopropoxypyridin-3-yl)methoxy]-N-[(dimethylamino)sulfonyl]-2,5-difluorobenzamide] was tested. Which IC50 did it give?
Answer: 8300 nM

Question: With CN(C)S(=O)(=O)NC(=O)c1cc(F)c(COc2ccc(Cl)c(F)c2)cc1F [Example 8, 4-[(4-chloro-3-fluorophenoxy)methyl]-N-[(dimethylamino)sulfonyl]-2,5-difluorobenzamide] as the compound, how does the IC50 read?
Answer: 850 nM

Question: CN(C)S(=O)(=O)NC(=O)c1cc(F)c(COc2ccc(C#N)c(Cl)c2)cc1F [Example 9, 4-[(3-chloro-4-cyanophenoxy)methyl]-N-[(dimethylamino)sulfonyl]-2,5-difluorobenzamide] was tested. Which IC50 did it give?
Answer: > 3000 nM

Question: Which IC50 does the source give for CN(C)S(=O)(=O)NC(=O)c1cc(F)c(COc2ccc(Cl)c(Cl)c2)cc1F [Example 10, 4-[(3,4-dichlorophenoxy)methyl]-N-[(dimethylamino)sulfonyl]-2,5-difluorobenzamide] here?
Answer: 350 nM

Question: With CN(C)S(=O)(=O)NC(=O)c1cc(F)c(COc2ccc(F)c(Cl)c2)cc1F [Example 11, 4-[(3-chloro-4-fluorophenoxy)methyl]-N-[(dimethylamino)sulfonyl]-2,5-difluorobenzamide] as the compound, how does the IC50 read?
Answer: 580 nM

Question: How did the IC50 turn out when CN(C)S(=O)(=O)NC(=O)c1ccc(OCc2ccc(Cl)c(Cl)c2)cc1 [Example 12, 4-[(3,4-dichlorobenzyl)oxy]-N-[(dimethylamino)sulfonyl]benzamide] was run?
Answer: 2300 nM

Question: CC(C)Oc1ncc(OCc2cc(F)c(C(=O)NS(=O)(=O)N3CCC3)cc2F)cc1Cl [Example 13, N-(azetidin-1-ylsulfonyl)-4-{[(5-chloro-6-isopropoxypyridin-3-yl)oxy]methyl}-2,5-difluorobenzamide] was tested. Which IC50 did it give?
Answer: 150 nM

Question: Which IC50 does the source give for CN(C)S(=O)(=O)NC(=O)c1cc(Cl)c(COc2cnc(C3CC3)c(Cl)c2)cc1F [Example 14, 5-chloro-4-{[(5-chloro-6-cyclopropylpyridin-3-yl)oxyl]methyl}-N-[(dimethylamino)sulfonyl]-2-fluorobenzamide diethylamine salt] here?
Answer: 420 nM

Question: O=C(NS(=O)(=O)N1CCC1)c1cc(Cl)c(COc2cnc(C3CC3)c(Cl)c2)cc1F [Example 15, N-(azetidin-1-ylsulfonyl)-5-chloro-4-{[(5-chloro-6-cyclopropylpyridin-3-yl)oxy]methyl}-2-fluorobenzamide] was tested. Which IC50 did it give?
Answer: 90 nM

Question: With O=C(NS(=O)(=O)N1CC(F)(F)C1)c1cc(Cl)c(COc2cnc(C3CC3)c(Cl)c2)cc1F [Example 16, 5-chloro-4-{[(5-chloro-6-cyclopropylpyridin-3-yl)oxy]methyl}-N-[(3,3-difluoroazetidin-1-yl)sulfonyl]-2-fluorobenzamide] as the compound, how does the IC50 read?
Answer: 270 nM

Source: patent US9085517B2, “Sulfonamide derivatives” (Pfizer Limited, priority 2011, dated 2015)
